Entries after “also recorded” stand apart in the source; their conditions may differ.
Columns and labels:
[1] = test system: gastric mucosa (ulcer number, ulcer index); assay: Ulcerogenic liability; assay type: in vivo, rat; settings: 50 mg/kg oral, three successive days, rats; for Ulcer index: sum of % incidence, average severity and average number of ulcers
Description: Female wister rats (150–200 g) were used in this study. The animals were kept at controlled conditions (temperature 23 ± 2 °C, humidity 60 ± 10%) and a 12/12-h light/dark cycle with access to food and water. All procedures relating to animal care and treatments were performed according to protocols approved by the Research Ethical Committee of Faculty of Pharmacy Beni-Suef University (2014-Beni-Suef, Egypt).
[…]. Forty-eight rats were used in this study, divided into 12 groups and fasted for 18 h before drug administration. The control group received the vehicle (2.5% Tween 80). Other groups received test compounds, celecoxib or indomethacin at a dose of 50 mg/kg, then animals were fed after 2 h. Rats were given the specified dose orally for three successive days. Rats were sacrificed after 2 h of the last dose, then the stomach of each rat was removed and opened along the greater curvature for determination of the ulcer number and ulcer index according to the reported method.

[2] = test system: carrageenan-induced paw oedema; assay: Carrageenan-induced rat paw oedema; assay type: in vivo; settings: 50 mg/kg oral; for %Inhibition of paw oedema, 1h / Paw thickness change mean ± SEM, 1h: 1 h after carrageenan; for Paw thickness change mean ± SEM, 1h / Paw thickness change mean ± SEM, 3h / Paw thickness change mean ± SEM, 5h: n = 4; for %Inhibition of paw oedema, 3h / Paw thickness change mean ± SEM, 3h: 3 h after carrageenan; for %Inhibition of paw oedema, 5h / Paw thickness change mean ± SEM, 5h: 5 h after carrageenan
Description: Female wister rats (150-200 g) were used in this study. The animals were kept at controlled conditions (temperature 23 ± 2 °C, humidity 60 ± 10%) and a 12/12-h light/dark cycle with access to food and water. All procedures relating to animal care and treatments were performed according to protocols approved by the Research Ethical Committee of Faculty of Pharmacy Beni-Suef University (2014-Beni-Suef, Egypt). The anti-inflammatory activity of the synthesised compounds was determined in vivo by […]-induced paw oedema method in rats[49]. Rats were divided into 21 groups of four animals each, and then, they were fasted overnight with free access to water before the experiment. Before any drug administration, thickness of the left hind paw of each rat was measured in millimetres. Group 1 served as a control and administered the vehicle (2.5% Tween 80).

rat's gastric tissue = assay: Histopathological investigation of stomach; assay type: in vivo; settings: haematoxylin and eosin, after ulcerogenic liability dosing
Description: Whole rats stomach were collected, selected stomach samples from each rat were fixed in 10% neutral buffered formalin for 48 h and routinely processed for paraffin embedding. 5 μm Thickness sections were obtained then stained with haematoxylin and eosin for histopathological evaluation.

ovine COX-1 = target: T1, ovine COX-1 (Ovis aries, UniProt P05979); assay: In vitro COX-1 inhibition assay (EIA kit, Cayman)
T1 sequence (P05979 25-600): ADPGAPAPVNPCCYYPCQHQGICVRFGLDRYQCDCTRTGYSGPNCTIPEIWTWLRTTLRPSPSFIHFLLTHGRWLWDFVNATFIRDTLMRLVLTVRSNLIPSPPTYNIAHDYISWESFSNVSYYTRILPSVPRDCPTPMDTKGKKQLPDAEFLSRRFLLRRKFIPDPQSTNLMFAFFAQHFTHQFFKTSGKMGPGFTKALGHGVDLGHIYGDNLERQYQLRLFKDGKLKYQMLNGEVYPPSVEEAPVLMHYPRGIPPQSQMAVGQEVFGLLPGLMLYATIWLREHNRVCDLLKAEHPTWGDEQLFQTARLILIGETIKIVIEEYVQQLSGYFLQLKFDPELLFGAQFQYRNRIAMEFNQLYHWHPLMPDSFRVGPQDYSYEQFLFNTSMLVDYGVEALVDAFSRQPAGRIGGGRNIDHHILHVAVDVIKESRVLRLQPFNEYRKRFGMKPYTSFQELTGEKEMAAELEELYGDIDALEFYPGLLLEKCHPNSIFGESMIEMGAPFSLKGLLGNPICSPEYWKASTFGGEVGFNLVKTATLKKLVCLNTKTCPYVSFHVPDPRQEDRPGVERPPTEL
Description: (§1) The peroxidase activity of cyclooxygenase enzyme isoforms was measured using the COX activity assay kit. The ability of the test compounds to inhibit both ovine COX-1 and COX-2 enzymes was explored in vitro using a colorimetric enzyme immunoassay (EIA) kit. The appearance of oxidised N,N,N′,N′-tetramethyl-p-phenylenediamine (TMPD) was monitored at 590 nm. The kit includes isozyme-specific inhibitors for distinguishing COX-2 activity from that of COX-1.

ovine COX-2 = target: T2, ovine COX-2 (Ovis aries, UniProt P79208); assay: In vitro COX-2 inhibition assay (EIA kit, Cayman); settings: for IC50: IC50 COX-2, ovine COX-2, mean of two determinations; for SI, COX-2 selectivity index (COX-1 IC50/COX-2 IC50): ovine enzymes
T2 sequence (P79208 17-603): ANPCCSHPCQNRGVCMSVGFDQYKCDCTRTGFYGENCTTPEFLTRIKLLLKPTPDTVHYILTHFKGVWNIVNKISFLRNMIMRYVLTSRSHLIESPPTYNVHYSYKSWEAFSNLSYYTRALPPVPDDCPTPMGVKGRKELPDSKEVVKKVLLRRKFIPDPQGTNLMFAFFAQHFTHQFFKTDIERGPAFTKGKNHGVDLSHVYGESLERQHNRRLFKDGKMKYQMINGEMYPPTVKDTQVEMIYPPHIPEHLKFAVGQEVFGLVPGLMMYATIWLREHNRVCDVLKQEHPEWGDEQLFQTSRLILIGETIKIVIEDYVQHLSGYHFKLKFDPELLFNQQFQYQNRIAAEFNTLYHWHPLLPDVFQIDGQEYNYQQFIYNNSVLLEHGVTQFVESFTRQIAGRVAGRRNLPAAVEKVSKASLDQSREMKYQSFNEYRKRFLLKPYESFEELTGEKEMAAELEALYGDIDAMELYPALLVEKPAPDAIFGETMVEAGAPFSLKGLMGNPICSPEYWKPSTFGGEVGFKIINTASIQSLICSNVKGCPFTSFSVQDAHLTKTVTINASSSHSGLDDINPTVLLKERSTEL
Description: as §1

[3] = test system: latency time of pain response; assay: Hot plate method (central analgesic activity); assay type: in vivo; settings: 10 mg/kg oral, mice, hot plate 55 °C, after 60 min
Description: This method was used to evaluate the central analgesic activity by determination of the delay in the latency time of pain response. […] After 60 min, the animals were placed on a hot plate maintained at 55 ± 0.5 °C. The reaction time was recorded as the time taken by the animals to […] or lick the fore or hind paw or jump off the plate.

Structure (SMILES)	IC50 (ovine COX-1) [µM]	IC50 (ovine COX-2) [µM]	SI, COX-2 selectivity index (COX-1 IC50/COX-2 IC50) (ovine COX-2)	melting point [°C]	Average number of ulcers [1]	Ulcer index [1]	%Inhibition of paw oedema, 1h [2]	Paw thickness change mean ± SEM, 1h [2] [mm]	%Inhibition of paw oedema, 3h [2] [%]	Paw thickness change mean ± SEM, 3h [2] [mm]	%Inhibition of paw oedema, 5h [2] [%]	Paw thickness change mean ± SEM, 5h [2] [mm]	Histopathological findings in stomach (rat's gastric tissue)	Central analgesic activity (delay in latency time) [3]
Cc1ccc(-c2cc(C(F)(F)F)nn2-c2ccc(S(N)(=O)=O)cc2)cc1 [Celecoxib, reference compound]					0.50	0.50	76%	0.38 ± 0.03	66	0.58 ± 0.11	19	1.08 ± 0.13	thickening and hyalinosis of basement membrane with lymphocytic infiltration and minimal congested submucosal blood capillaries	
COc1ccc(-c2cc(-c3ccc(-n4cnnn4)cc3)nc(N)c2C#N)cc1OC [Compound 4c, 6-[4-(1H-Tetrazol-1-yl)phenyl]-2-amino-4-(3,4-dimethoxyphenyl)nicotinonitrile]	16	0.38	42.02	230 to 232	1.75	1.75		0.83 ± 0.15	58	0.70 ± 0.11	8	1.23 ± 0.11	mucous degeneration in gastric glandular epithelium reach to coagulative necrosis	
COc1cc(-c2cc(-c3ccc(-n4cnnn4)cc3)[nH]c(=O)c2C#N)cc(OC)c1OC [Compound 5f, 6-[4-(1H-Tetrazol-1-yl)phenyl]-4-(3,4,5-trimethoxyphenyl)-2-oxo-1,2-dihydropyridine-3-carbonitrile]	6.45		46.07	> 300	1.25	1.25	79%	0.33 ± 0.09	36	1.08 ± 0.10	30	0.93 ± 0.15	affect only muscular layer of the stomach by causing corrugation and hyalinosis in some muscle bundles and reach to coagulative necrosis	potent analgesic activities
N#Cc1c(-c2ccccc2)cc(-c2ccc(-n3cnnn3)cc2)[nH]c1=O [Compound 5a, 6-[4-(1H-Tetrazol-1-yl)phenyl]-2-oxo-4-phenyl-1,2-dihydropyridine-3-carbonitrile]	7.09	0.18	39.38	281 to 283	0.75	1.25	61%	0.61 ± 0.08	54	0.63 ± 0.18	61	0.53 ± 0.09	all layers of stomach were more or less normal; also recorded: most preferable compound with minimal drug effect on tissue	

Second part, led by results:

IC50 (ovine COX-1) [µM]	IC50 (ovine COX-2) [µM]	SI, COX-2 selectivity index (COX-1 IC50/COX-2 IC50) (ovine COX-2)	melting point [°C]	Structure (SMILES)	Average number of ulcers [1]	Ulcer index [1]	%Inhibition of paw oedema, 1h [2]	Paw thickness change mean ± SEM, 1h [2] [mm]	%Inhibition of paw oedema, 3h [2] [%]	Paw thickness change mean ± SEM, 3h [2] [mm]	%Inhibition of paw oedema, 5h [2] [%]	Paw thickness change mean ± SEM, 5h [2] [mm]	Histopathological findings in stomach (rat's gastric tissue)	Central analgesic activity (delay in latency time) [3]
3.87		35.18	241 to 243	COc1cc(C2CC(c3ccc(-n4cnnn4)cc3)=NN2c2ccc(S(C)(=O)=O)cc2)cc(OC)c1OC (centres unmarked) [Compound 8b]	0.75	0.75	71%	0.45 ± 0.10	48	0.88 ± 0.09	38	0.83 ± 0.17	massive destruction of localised area of epithelium with formation of an erosion associated with hyalinosis and necrosis of muscular layer	potent analgesic activities
8.67	0.32			COc1ccc(C2CC(c3ccc(-n4cnnn4)cc3)=NN2c2ccc(S(C)(=O)=O)cc2)cc1OC (centres unmarked) [Compound 8a, 1-{4-[5-(3,4-Dimethoxyphenyl)-1-(4-(methanesulphonyl)phenyl]-4,5-dihydro-1H-pyrazol-3-yl)phenyl}-1H-tetrazole]	1.50		71–75%		52	0.89 ± 0.19	15	1.13 ± 0.11	some areas of glandular epithelium were more or less normal associated with sever congested blood capillaries and eosinophilic infiltrations in submucosa	potent analgesic activities
7.37	0.21			COc1cc(C2CC(c3ccc(-n4cnnn4)cc3)=NN2c2ccc(S(N)(=O)=O)cc2)cc(OC)c1OC (centres unmarked) [Compound 9b, 4-{3-[4-(1H-Tetrazol-1-yl)phenyl]-5-(3,4,5-trimethoxyphenyl)-4,5-dihydro-1H-pyrazol-1-yl)benzenesulphonamide]	0.25		75%	0.40 ± 0.11	40	1.00 ± 0.16	12	1.18 ± 0.20	Mucous degeneration of glandular epithelium of gastric mucosa, and lymphocytic infiltration and mild congestion in submucosa	

Reference: PMC6445242, “Novel tetrazole and cyanamide derivatives as inhibitors of cyclooxygenase-2 enzyme: design, synthesis, anti-inflammatory evaluation, ulcerogenic liability and docking study” (Journal of Enzyme Inhibition and Medicinal Chemistry, 2017)
